Test results taken from US20050187264A1, “Phosphodiesterase iv inhibitor containing pyridylacrylamide derivative” (priority 2002, published 2005).

Experiments:
Phosphodiesterase IV = test: Inhibitory action on phosphodiesterase IV ([3H]cAMP hydrolysis, liquid scintillation); format: biochemical; details: test substance 10 μM; enzyme isolated from U-937 cell; cAMP 1 μM substrate; 30 min at 30° C.; duplicate
Protocol: Phosphodiesterase IV was isolated using U-937 cell as origin (Torphy, T. J. et al., J. Pharmacol. Exp. Ther., 263, 1195-1205 (1992)). Using [^3 H]cAMP and cAMP (1 μM) as substrate/tracer, incubation was performed for 30 min at 30° C. [^3H]5′-AMP was measured by liquid scintillation. Inhibitory activity is represented by the rate of inhibition of a test substance with respect to a control group that is without the test substance, and is calculated by the following formula: Inhibitory activity (%)=100×(control group value−value of group with test substance addition/control group value.
All tests were implemented in duplicate.

Row | melting point [°C] | Structure (SMILES) | Phosphodiesterase IV inhibitory activity (10 μM) (Phosphodiesterase IV) [%]
1 | 168 to 170 | COC(=O)CN(CCc1ccc(OC)c(OC)c1)C(=O)/C=C/c1cccnc1.Cl | –
2 | 115 to 120 | COc1ccc(CCN(C)C(=O)/C(C#N)=C/c2cccnc2)cc1OC [Compound 2] | 72
3 | 152 to 155 | COCCOCOc1c(OC)cc(CCN(C)C(=O)/C=C/c2cccnc2)cc1OC [Compound 36] | –
4 | – | COc1ccc(CCN(C)C(=O)/C=C/c2cccnc2)cc1OC [Compound 84, (E)-N-(3,4-dimethoxyphenethyl)-N-methyl-3-(3-pyridyl)-2-propenamide] | 49
5 | 105 to 107 | CCOC(=O)COc1ccc(CNC(=O)/C=C/c2cccnc2)cc1OC [Compound 105] | –
6 | – | COc1ccc(CCN(C)C(=S)/C=C/c2cccnc2)cc1OC.Cl [Compound 135, (E)-N-(3,4-dimethoxyphenethyl)-N-methyl-3-(3-pyridyl)-2-propenethioamide Hydrochloride] | 53
7 | 182 to 187 | COc1ccc(CCNC(=S)/C=C/c2cccnc2)cc1OC.Cl [Compound 136] | 45
8 | – | COc1ccc(CCN(C)C(=O)/C=C/c2cccnc2)cc1OC.Cl [Compound 140] | 54
9 | – | COc1ccc(CCN(C)C(=O)/C=C/c2cccnc2)cc1OC [Compound 143] | 50
10 | – | COc1ccc(CCN(C)C(=O)/C=C/c2cccnc2)cc1OC [Compound 144] | 47
11 | – | COc1ccc(CCN(C)C(=O)/C=C/c2cccnc2)cc1OC [Compound 146] | 43
12 | – | COc1ccc(CCN(C)C(=O)/C=C/c2ccccn2)cc1OC.Cl [Compound 153] | 59
13 | – | COc1ccc(C(=O)CN(C)C(=O)/C=C/c2cccnc2)cc1OC [Compound 155, (E)-N-[2-(3,4-dimethoxyphenyl)-2-oxoethyl]-N-methyl-3-(3-pyridyl)-2-propenamide] | 69
